Source: patent publication US20200079793A1, “COMPOUNDS AND METHODS FOR MODULATING ADENOSINE A2B RECEPTOR AND ADENOSINE A2A RECEPTOR” (CORVUS PHARMACEUTICALS, INC., priority 2018, published 2020)
pIC50: −log10 of the molar value.

Legend:
[1] = biological target: T1, Adenosine A2B Receptor (Homo sapiens, UniProt P29275); assay: Activity assay of adenosine receptor modulators, Adenosine A2B Receptor (Table 1); assay type: biochemical; settings: cAMP; read-out: A2BR cAMP IC50
T1 sequence (P29275 1-332): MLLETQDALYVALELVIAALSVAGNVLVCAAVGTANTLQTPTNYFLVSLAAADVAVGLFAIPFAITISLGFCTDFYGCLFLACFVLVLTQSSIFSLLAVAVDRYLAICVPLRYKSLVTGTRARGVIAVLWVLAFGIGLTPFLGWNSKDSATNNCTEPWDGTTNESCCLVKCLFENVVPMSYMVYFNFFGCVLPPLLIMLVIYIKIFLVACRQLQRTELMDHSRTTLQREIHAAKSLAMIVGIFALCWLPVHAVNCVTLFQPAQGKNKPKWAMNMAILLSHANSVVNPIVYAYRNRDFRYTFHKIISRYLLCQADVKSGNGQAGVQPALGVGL
Method: (§1) Compounds (e.g., adenosine receptor modulators) were tested for its biological activity. The assay results in Table 1 indicate (+ means >1 μM; ++ means 100 nM to 1 μM; +++ means <100 nM).

[2] = biological target: Adenosine A2A Receptor (Homo sapiens, UniProt P29274); assay: Activity assay of adenosine receptor modulators, Adenosine A2A Receptor (Table 1); assay type: biochemical; settings: cAMP; read-out: A2AR cAMP IC50
Chain of Adenosine A2A Receptor (P29274 whole entry): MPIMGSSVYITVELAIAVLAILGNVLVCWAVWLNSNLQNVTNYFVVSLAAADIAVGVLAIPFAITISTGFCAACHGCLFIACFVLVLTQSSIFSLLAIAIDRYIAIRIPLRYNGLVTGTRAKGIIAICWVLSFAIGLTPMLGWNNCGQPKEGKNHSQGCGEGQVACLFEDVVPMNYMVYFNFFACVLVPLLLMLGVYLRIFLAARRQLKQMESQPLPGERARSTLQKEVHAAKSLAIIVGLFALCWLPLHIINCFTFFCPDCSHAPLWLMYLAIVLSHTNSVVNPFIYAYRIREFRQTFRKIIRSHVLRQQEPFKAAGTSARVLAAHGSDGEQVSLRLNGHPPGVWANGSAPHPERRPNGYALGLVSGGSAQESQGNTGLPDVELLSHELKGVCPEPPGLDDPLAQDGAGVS
Method: as §1

[3] = biological target: T2, A1R (Homo sapiens, UniProt P30542); assay: Activity assay of adenosine receptor modulators, A1R cAMP (Table 1); assay type: cell-based
T2 sequence (P30542 1-326): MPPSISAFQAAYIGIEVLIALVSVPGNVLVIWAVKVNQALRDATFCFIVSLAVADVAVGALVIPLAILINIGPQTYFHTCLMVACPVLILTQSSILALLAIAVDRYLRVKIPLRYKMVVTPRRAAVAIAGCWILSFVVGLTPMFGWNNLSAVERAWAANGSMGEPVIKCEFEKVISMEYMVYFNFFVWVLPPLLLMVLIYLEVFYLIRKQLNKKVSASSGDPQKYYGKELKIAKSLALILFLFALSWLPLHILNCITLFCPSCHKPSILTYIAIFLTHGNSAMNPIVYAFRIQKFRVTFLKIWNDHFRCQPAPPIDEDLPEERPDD
Method: as §1

[4] = biological target: T3, A3R (Homo sapiens, UniProt P0DMS8); assay: Activity assay of adenosine receptor modulators, A3R cAMP (Table 1); assay type: cell-based
T3 sequence (P0DMS8 1-318): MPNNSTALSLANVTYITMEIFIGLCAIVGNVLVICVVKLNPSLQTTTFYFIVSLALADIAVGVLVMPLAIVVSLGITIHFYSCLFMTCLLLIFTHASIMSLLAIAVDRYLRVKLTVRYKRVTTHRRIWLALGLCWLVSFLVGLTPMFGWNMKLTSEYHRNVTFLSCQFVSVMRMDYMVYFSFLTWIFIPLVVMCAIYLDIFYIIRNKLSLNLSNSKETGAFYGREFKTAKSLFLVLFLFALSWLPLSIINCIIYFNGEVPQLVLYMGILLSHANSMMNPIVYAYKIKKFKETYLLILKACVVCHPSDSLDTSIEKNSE
Method: as §1

pIC50 [1] | pIC50 [2] | pIC50 [3] | pIC50 [4] | SMILES
> 7.00 | > 7.00 | < 6.00 | > 7.00 | Cc1nc2nc(N[C@@H](C)c3cncc(F)c3)nc(C(=O)N3CC(NC(=O)C4CCCC4)C3)c2s1 [Example 55, (S)—N-(1-(5-((1-(5-Fluoropyridin-3-yl)ethyl)amino)-2-methylthiazolo[4,5-d]pyrimidine-7-carbonyl)azetidin-3-yl)cyclopentanecarboxamide]
> 7.00 | > 7.00 | < 6.00 | > 7.00 | Cc1nc2nc(N[C@@H](C)c3cncc(F)c3)nc(C(=O)N3CC(NC(=O)C4CCC4)C3)c2s1 [Example 56, (S)—N-(1-(5-((1-(5-Fluoropyridin-3-yl)ethyl)amino)-2-methylthiazolo[4,5-d]pyrimidine-7-carbonyl)azetidin-3-yl)cyclobutanecarboxamide]
> 7.00 | > 7.00 | < 6.00 | > 7.00 | Cc1nc2nc(N[C@@H](C)c3cncc(F)c3)nc(C(=O)N3CC(NC(=O)C4CCCCC4)C3)c2s1 [Example 61, (S)—N-(1-(5-((1-(5-Fluoropyridin-3-yl)ethyl)amino)-2-methylthiazolo[4,5-d]pyrimidine-7-carbonyl)azetidin-3-yl)cyclohexanecarboxamide]
6.00 to 7.00 | > 7.00 | < 6.00 | 6.00 to 7.00 | Cc1nc2nc(N[C@@H](C)c3cccnc3)nc(C(=O)N3CC(NC(=O)C(C)(C)C)C3)c2s1 [Example 64, (S)—N-(1-(2-Methyl-5-((1-(pyridin-3-yl)ethyl)amino)thiazolo[4,5-d]pyrimidine-7-carbonyl)azetidin-3-yl)pivalamide]
6.00 to 7.00 | > 7.00 | < 6.00 | 6.00 to 7.00 | Cc1nc2nc(N[C@@H](C)c3cncc(F)c3)nc(C(=O)N3CC(NC(=O)Nc4ccccc4)C3)c2s1 [Example 65, (S)-1-(1-(5-((1-(5-Fluoropyridin-3-yl)ethyl)amino)-2-methylthiazolo[4,5-d]pyrimidine-7-carbonyl)azetidin-3-yl)-3-phenylurea]
6.00 to 7.00 | > 7.00 | < 6.00 | 6.00 to 7.00 | Cc1nc2nc(N[C@@H](C)c3cncc(F)c3)nc(C(=O)N3CC(NC(=O)C4CC(F)(F)C4)C3)c2s1 [Example 69, (S)-3,3-Difluoro-N-(1-(5-((1-(5-fluoropyridin-3-yl)ethyl)amino)-2-methylthiazolo[4,5-d]pyrimidine-7-carbonyl)azetidin-3-yl)cyclobutane-1-carboxamide]
> 7.00 | > 7.00 | < 6.00 | 6.00 to 7.00 | Cc1nc2nc(N[C@@H](C)c3cncc(F)c3)nc(C(=O)N3CC(NC(=O)C4(C(F)(F)F)CC4)C3)c2s1 [Example 70, (S)—N-(1-(5-((1-(5-Fluoropyridin-3-yl)ethyl)amino)-2-methylthiazolo[4,5-d]pyrimidine-7-carbonyl)azetidin-3-yl)-1-(trifluoromethyl)cyclopropane-1-carboxamide]
> 7.00 | > 7.00 | < 6.00 | 6.00 to 7.00 | COc1cccc(C(=O)NC2CN(C(=O)c3nc(N[C@@H](C)c4cncc(F)c4)nc4nc(C)sc34)C2)c1 [Example 71, (S)—N-(1-(5-((1-(5-Fluoropyridin-3-yl)ethyl)amino)-2-methylthiazolo[4,5-d]pyrimidine-7-carbonyl)azetidin-3-yl)-3-methoxybenzamide]
6.00 to 7.00 | > 7.00 | < 6.00 | 6.00 to 7.00 | Cc1nc2nc(N[C@@H](C)c3cccnc3)nc(C(=O)N3CC(NC(=O)c4ccccc4)C3)c2s1 [Example 73, N-[1-[2-Methyl-5-[[(S)-1-(3-pyridyl)ethyl]amino]thiazolo[4,5-d]pyrimidine-7-carbonyl]azetidin-3-yl]benzamide]

The next lines start with the molecule.

SMILES | pIC50 [1] | pIC50 [2] | pIC50 [3] | pIC50 [4]
Cc1nc2nc(N[C@@H](C)c3cncc(F)c3)nc(C(=O)N3CC(NC(=O)NC(C)(C)C)C3)c2s1 [Example 57, (S)-1-(tert-Butyl)-3-(1-(5-((1-(5-fluoropyridin-3-yl)ethyl)amino)-2-methylthiazolo[4,5-d]pyrimidine-7-carbonyl)azetidin-3-yl)urea] | > 7.00 | > 7.00 | < 6.00 | 6.00 to 7.00
Cc1nc2nc(N[C@@H](C)c3cncc(F)c3)nc(C(=O)N3CC(NC(=O)c4ccccc4)C3)c2s1 [Example 58, (S)—N-(1-(5-((1-(5-Fluoropyridin-3-yl)ethyl)amino)-2-methylthiazolo[4,5-d]pyrimidine-7-carbonyl)azetidin-3-yl)benzamide] | > 7.00 | > 7.00 | < 6.00 | > 7.00
Cc1nc2nc(N[C@@H](C)c3cncc(F)c3)nc(C(=O)N3CC(NC(=O)c4ccccc4F)C3)c2s1 [Example 59, (S)-2-Fluoro-N-(1-(5-((1-(5-fluoropyridin-3-yl)ethyl)amino)-2-methylthiazolo[4,5-d]pyrimidine-7-carbonyl)azetidin-3-yl)benzamide] | > 7.00 | > 7.00 | < 6.00 | 6.00 to 7.00
Cc1nc2nc(N[C@@H](C)c3cncc(F)c3)nc(C(=O)N3CC(NC(=O)NC4CCCC4)C3)c2s1 [Example 60, (S)-1-Cyclopentyl-3-(1-(5-((1-(5-fluoropyridin-3-yl)ethyl)amino)-2-methylthiazolo[4,5-d]pyrimidine-7-carbonyl)azetidin-3-yl)urea] | > 7.00 | > 7.00 | < 6.00 | 6.00 to 7.00
Cc1nc2nc(N[C@@H](C)c3ccccn3)nc(C(=O)N3CC(NC(=O)C(C)(C)C)C3)c2s1 [Example 62, 2,2-Dimethyl-N-[1-[2-methyl-5-[[(S)-1-(2-pyridyl)ethyl]amino]thiazolo[4,5-d]pyrimidine-7-carbonyl]azetidin-3-yl]propanamide] | > 7.00 | > 7.00 | < 6.00 | 6.00 to 7.00
Cc1nc2nc(N[C@@H](C)c3ccccn3)nc(C(=O)N3CC(NC(=O)NC(C)(C)C)C3)c2s1 [Example 63, (S)-1-(tert-Butyl)-3-(1-(2-methyl-5-((1-(pyridin-2-yl)ethyl)amino)thiazolo[4,5-d]pyrimidine-7-carbonyl)azetidin-3-yl)urea] | 6.00 to 7.00 | > 7.00 | < 6.00 | 6.00 to 7.00
Cc1nc2nc(N[C@@H](C)c3cncc(F)c3)nc(C(=O)N3CC(NC(=O)C45CCC(CC4)CC5)C3)c2s1 [Example 67, (S)—N-(1-(5-((1-(5-Fluoropyridin-3-yl)ethyl)amino)-2-methylthiazolo[4,5-d]pyrimidine-7-carbonyl)azetidin-3-yl)bicyclo[2.2.2]octane-1-carboxamide] | > 7.00 | > 7.00 | < 6.00 | > 7.00
Cc1nc2nc(N[C@@H](C)c3cncc(F)c3)nc(C(=O)N3CC(NC(=O)C4CCOCC4)C3)c2s1 [Example 68, (S)—N-(1-(5-((1-(5-Fluoropyridin-3-yl)ethyl)amino)-2-methylthiazolo[4,5-d]pyrimidine-7-carbonyl)azetidin-3-yl)tetrahydro-2H-pyran-4-carboxamide] | 6.00 to 7.00 | > 7.00 | < 6.00 | 6.00 to 7.00
Cc1nc2nc(N[C@@H](C)c3cncc(F)c3)nc(C(=O)N3CC(NC(=O)c4ccoc4)C3)c2s1 [Example 72, (S)—N-(1-(5-((1-(5-Fluoropyridin-3-yl)ethyl)amino)-2-methylthiazolo[4,5-d]pyrimidine-7-carbonyl)azetidin-3-yl)furan-3-carboxamide] | 6.00 to 7.00 | > 7.00 | < 6.00 | 6.00 to 7.00
Cc1nc2nc(N[C@@H](C)c3cccnc3)nc(C(=O)N3CC(NC(=O)c4cccc(F)c4)C3)c2s1 [Example 74, 3-Fluoro-N-[1-[2-methyl-5-[[(S)-1-(3-pyridyl)ethyl]amino]thiazolo[4,5-d]pyrimidine-7-carbonyl]azetidin-3-yl]benzamide] | 6.00 to 7.00 | > 7.00 | < 6.00 | < 6.00
Cc1nc2nc(N[C@@H](C)c3cccnc3)nc(C(=O)N3CC(NC(=O)C4CCC4)C3)c2s1 [Example 75, N-[1-[2-Methyl-5-[[(S)-1-(3-pyridyl)ethyl]amino]thiazolo[4,5-d]pyrimidine-7-carbonyl]azetidin-3-yl]cyclobutanecarboxamide] | 6.00 to 7.00 | > 7.00 | < 6.00 | < 6.00
